Tests used:
SETVI [1] = experiment: Post-emergence herbicidal effect, greenhouse pot test; type: in vivo, Setaria viridis; conditions: Setaria viridis, 504 h, read-out: Post-emergence effect against SETVI in %
Procedure, shortened: (§1)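 Greenhouse pot plants in sandy loam receive a one-leaf-stage spray at 20 to 320 g/ha. Activity is assessed visually around 3 weeks afterwards on a 0–100% scale, where 100% means the plants have died.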

VIOTR = experiment: as above; type: in vivo, Viola tricolor; conditions: Viola tricolor, 504 h, read-out: Post-emergence effect against VIOTR in %
Procedure, shortened: as §1

LOLRI [2] = experiment: Pre-emergence herbicidal effect, greenhouse pot test; type: in vivo, Lolium rigidum; conditions: scored visually after about 3 weeks vs untreated controls
Procedure, shortened: (§2)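 Greenhouse pots with freshly sown seeds receive a soil-surface treatment of 20 to 320 g/ha compound, formulated as WP or EC with 0.5% additive at 600 l/ha. Activity is expressed as visually estimated percent effect versus untreated plants after about 3 weeks, where 100% means the plants died.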

AMARE [3] = experiment: as above; type: in vivo, Amaranthus retroflexus; conditions: scored visually after about 3 weeks vs untreated controls; for pest or weed control at 320 g/ha: Amaranthus retroflexus, 504 h, read-out: Pre-emergence effect at 320 g/ha against AMARE in %
Procedure, shortened: as §2

ZEAMX = experiment: Pre-emergence herbicidal effect and crop plant compatibility, greenhouse pot test; type: in vivo, Zea mays; conditions: 80 g/ha, scored visually after about 3 weeks vs untreated controls
Procedure, shortened: as §2

PHBPU = experiment: Post-emergence herbicidal effect, greenhouse pot test; type: in vivo, Ipomoea purpurea; conditions: Ipomoea purpurea, 504 h, read-out: Post-emergence effect against PHBPU in %
Procedure, shortened: as §1

ALOMY [4] = experiment: as above; type: in vivo, Alopecurus myosuroides; conditions: Alopecurus myosuroides, 504 h, visual rating about 3 weeks after treatment, read-out: Post-emergence effect against ALOMY
Procedure, shortened: as §1

VERPE = experiment: as above; type: in vivo, Veronica persica; conditions: Veronica persica, 504 h, read-out: Post-emergence effect against VERPE in %
Procedure, shortened: as §1

ALOMY [5] = experiment: Pre-emergence herbicidal effect, greenhouse pot test; type: in vivo, Alopecurus myosuroides; conditions: scored visually after about 3 weeks vs untreated controls
Procedure, shortened: as §2

MATIN [6] = experiment: Post-emergence herbicidal effect, greenhouse pot test; type: in vivo, Tripleurospermum inodorum; conditions: Tripleurospermum inodorum, 504 h, read-out: Post-emergence effect against MATIN in %
Procedure, shortened: as §1

SETVI [7] = experiment: Pre-emergence herbicidal effect, greenhouse pot test; type: in vivo, Setaria viridis; conditions: scored visually after about 3 weeks vs untreated controls; for pest or weed control at 320 g/ha: Setaria viridis, 504 h, read-out: Pre-emergence effect at 320 g/ha against SETVI in %
Procedure, shortened: as §2

MATIN [8] = experiment: as above; type: in vivo, Tripleurospermum inodorum; conditions: scored visually after about 3 weeks vs untreated controls; for pest or weed control at 320 g/ha: Tripleurospermum inodorum, 504 h, read-out: Pre-emergence effect at 320 g/ha against MATIN in %
Procedure, shortened: as §2

AMARE [9] = experiment: Post-emergence herbicidal effect, greenhouse pot test; type: in vivo, Amaranthus retroflexus; conditions: Amaranthus retroflexus, 504 h, visual rating about 3 weeks after treatment, read-out: Post-emergence effect against AMARE
Procedure, shortened: as §1

ECHCG [10] = experiment: Pre-emergence herbicidal effect, greenhouse pot test; type: in vivo, Echinochloa crus-galli; conditions: scored visually after about 3 weeks vs untreated controls; for pest or weed control at 320 g/ha: Echinochloa crus-galli, 504 h, read-out: Pre-emergence effect at 320 g/ha against ECHCG in %
Procedure, shortened: as §2

LOLRI [11] = experiment: Post-emergence herbicidal effect, greenhouse pot test; type: in vivo, Lolium rigidum; conditions: Lolium rigidum, 504 h, read-out: Post-emergence effect against LOLRI in %
Procedure, shortened: as §1

ECHCG [12] = experiment: as above; type: in vivo, Echinochloa crus-galli; conditions: Echinochloa crus-galli, 504 h, read-out: Post-emergence effect against ECHCG in %
Procedure, shortened: as §1

POLCO = experiment: Pre-emergence herbicidal effect, greenhouse pot test; type: in vivo, Fallopia convolvulus; conditions: scored visually after about 3 weeks vs untreated controls; for pest or weed control at 320 g/ha: Fallopia convolvulus, 504 h, read-out: Pre-emergence effect at 320 g/ha against POLCO in %
Procedure, shortened: as §2

AVEFA [13] = experiment: Post-emergence herbicidal effect, greenhouse pot test; type: in vivo, Avena fatua; conditions: Avena fatua, 504 h, visual rating about 3 weeks after treatment, read-out: Post-emergence effect against AVEFA
Procedure, shortened: as §1

AVEFA [14] = experiment: Pre-emergence herbicidal effect, greenhouse pot test; type: in vivo, Avena fatua; conditions: 320 g/ha, scored visually after about 3 weeks vs untreated controls
Procedure, shortened: as §2

SMILES	pest or weed control at 80 g/ha (SETVI [1]) [%]	pest or weed control at 320 g/ha (SETVI [1]) [%]	pest or weed control at 320 g/ha (VIOTR) [%]	Pre-emergence effect at 320 g/ha against LOLRI in % (LOLRI [2]) [%]	pest or weed control at 320 g/ha (AMARE [3]) [%]	Pre-emergence effect at 80 g/ha against ZEAMX in % (ZEAMX) [%]	pest or weed control at 320 g/ha (PHBPU) [%]	pest or weed control at 80 g/ha (ALOMY [4]) [%]	pest or weed control at 320 g/ha (ALOMY [4]) [%]	pest or weed control at 320 g/ha (VERPE) [%]	Pre-emergence effect at 320 g/ha against ALOMY in % (ALOMY [5]) [%]	pest or weed control at 320 g/ha (MATIN [6]) [%]	pest or weed control at 320 g/ha (SETVI [7]) [%]	pest or weed control at 320 g/ha (MATIN [8]) [%]	pest or weed control at 320 g/ha (AMARE [9]) [%]	pest or weed control at 320 g/ha (ECHCG [10]) [%]	pest or weed control at 320 g/ha (LOLRI [11]) [%]	pest or weed control at 320 g/ha (ECHCG [12]) [%]	pest or weed control at 320 g/ha (POLCO) [%]	pest or weed control at 320 g/ha (AVEFA [13]) [%]	other results
CCOC(=O)C(OCC)Oc1nn(-c2ccccc2F)c(-c2ccc(F)nc2)c1Br (racemic) [Example I-01, Ethyl (2RS)-{[4-bromo-1-(2-fluorophenyl)-5-(6-fluoropyridin-3-yl)-1H-pyrazol-3-yl]oxy}(ethoxy)acetate]	90	90	90	100	100	0	90	90	100	90	90	90	100	90	90	100	90	90	90	90	pest or weed control at 80 g/ha (VIOTR): 80%; Pre-emergence effect at 80 g/ha against LOLRI in % (LOLRI [2]; 80 g/ha): 90%; Pre-emergence effect at 80 g/ha against AMARE in % (AMARE [3]): 80%; pest or weed control at 80 g/ha (PHBPU): 90%; pest or weed control at 80 g/ha (VERPE): 80%; pest or weed control at 80 g/ha (MATIN [6]): 80%; Pre-emergence effect at 80 g/ha against MATIN in % (MATIN [8]; 80 g/ha): 90%; pest or weed control at 80 g/ha (AMARE [9]; 80 g/ha): 80%; pest or weed control at 80 g/ha (ECHCG [12]): 90%; Pre-emergence effect at 80 g/ha against POLCO in % (POLCO): 80%
COC(=O)C(OC)Oc1nn(-c2ccccc2F)c(-c2ccc(F)nc2)c1Br (racemic) [Example I-04, Methyl (2RS)-{[4-bromo-1-(2-fluorophenyl)-5-(6-fluoropyridin-3-yl)-1H-pyrazol-3-yl]oxy}(methoxy)acetate]	80	80	80	100	100	0	80	90	90	90	90	80	100	90	90	100	80	80	90	90	pest or weed control at 80 g/ha (VIOTR): 80%; Pre-emergence effect at 80 g/ha against AMARE in % (AMARE [3]): 80%; pest or weed control at 80 g/ha (PHBPU): 80%; pest or weed control at 80 g/ha (VERPE): 90%; Pre-emergence effect at 320 g/ha against AVEFA in % (AVEFA [14]): 80%; Pre-emergence effect at 80 g/ha against ALOMY in % (ALOMY [5]; 80 g/ha): 80%; pest or weed control at 80 g/ha (MATIN [6]): 80%; Pre-emergence effect at 80 g/ha against SETVI in % (SETVI [7]; 80 g/ha): 80%; Pre-emergence effect at 80 g/ha against ECHCG in % (ECHCG [10]; 80 g/ha): 80%; pest or weed control at 80 g/ha (LOLRI [11]): 80%; pest or weed control at 80 g/ha (ECHCG [12]): 80%; Pre-emergence effect at 80 g/ha against POLCO in % (POLCO): 80%; pest or weed control at 80 g/ha (AVEFA [13]): 80%
COC(=O)C(OC)Oc1nn(-c2ncccc2F)c(-c2ccc(F)nc2)c1Br (centres unmarked) [Example I-05]	80	80	80	100	90	20	90	90	90	80	90	80	100	90	80	90	90	80	90	80	Pre-emergence effect at 320 g/ha against AVEFA in % (AVEFA [14]): 90%; pest or weed control at 80 g/ha (LOLRI [11]): 80%; pest or weed control at 80 g/ha (AVEFA [13]): 80%
